Experimental data: patent US20230139171A1 (SITA Information Networking Computing UK Limited, priority 2019, published 2023)
pIC50: −log10 of the molar value.

Key:
Format in all cases: cell-based
human TLR9 = target: T1, human TLR9 (Homo sapiens, UniProt Q9NR96); assay: TLR9 inhibition reporter assay (HEK-Blue cells, SEAP reporter, ODN2006 stimulation); conditions: HEK-Blue cells overexpressing human TLR9, SEAP reporter, ODN2006 5 nM
T1 construct: host or cells: HEK-Blue cells
T1 sequence (Q9NR96 26-1032): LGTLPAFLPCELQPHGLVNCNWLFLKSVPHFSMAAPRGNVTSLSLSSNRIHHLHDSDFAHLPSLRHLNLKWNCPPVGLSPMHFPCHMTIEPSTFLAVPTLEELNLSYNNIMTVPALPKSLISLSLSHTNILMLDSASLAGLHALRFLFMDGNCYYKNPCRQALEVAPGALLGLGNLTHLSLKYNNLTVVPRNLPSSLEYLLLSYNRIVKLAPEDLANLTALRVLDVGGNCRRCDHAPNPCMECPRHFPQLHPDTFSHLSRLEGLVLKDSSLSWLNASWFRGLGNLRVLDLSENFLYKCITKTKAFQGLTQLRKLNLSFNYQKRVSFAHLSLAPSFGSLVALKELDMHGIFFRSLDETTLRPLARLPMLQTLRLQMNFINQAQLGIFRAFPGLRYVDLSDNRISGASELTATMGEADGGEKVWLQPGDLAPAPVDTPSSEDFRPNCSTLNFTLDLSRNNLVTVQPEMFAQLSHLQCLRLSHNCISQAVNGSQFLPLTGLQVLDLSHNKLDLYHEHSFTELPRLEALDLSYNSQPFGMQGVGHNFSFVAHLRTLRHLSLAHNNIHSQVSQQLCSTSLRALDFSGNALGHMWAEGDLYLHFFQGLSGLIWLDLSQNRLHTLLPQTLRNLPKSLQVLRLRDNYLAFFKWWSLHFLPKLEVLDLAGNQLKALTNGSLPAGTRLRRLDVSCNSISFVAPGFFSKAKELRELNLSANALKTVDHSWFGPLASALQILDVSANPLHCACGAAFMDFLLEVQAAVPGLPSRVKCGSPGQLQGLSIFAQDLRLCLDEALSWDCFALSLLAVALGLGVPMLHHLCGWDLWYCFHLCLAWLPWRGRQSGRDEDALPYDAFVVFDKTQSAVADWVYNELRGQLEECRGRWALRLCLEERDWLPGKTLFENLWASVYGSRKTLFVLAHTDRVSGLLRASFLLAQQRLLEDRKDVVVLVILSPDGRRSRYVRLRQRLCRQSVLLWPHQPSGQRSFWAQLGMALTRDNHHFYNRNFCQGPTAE
Method in brief: (§1)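 Dose–response from 0.05 nM to 50 μM was run in HEK-Blue human TLR7, TLR8 and TLR9 reporter cells. After 30 min at room temperature with compound, ligand was added (TLR7 gardiquimod 7.5 μM; TLR8 R848 15.9 μM; TLR9 ODN2006 5 nM) and SEAP measured next day, at 22 h.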

human TLR8 = target: T2, human TLR8 (Homo sapiens, UniProt Q9NR97); assay: TLR8 inhibition reporter assay (HEK-Blue cells, SEAP reporter, R848 stimulation); conditions: HEK-Blue cells overexpressing human TLR8, SEAP reporter, R848 15.9 μM; read-out: TLR8 IC50
T2 construct: host or cells: HEK-Blue cells
T2 sequence (Q9NR97 27-1041): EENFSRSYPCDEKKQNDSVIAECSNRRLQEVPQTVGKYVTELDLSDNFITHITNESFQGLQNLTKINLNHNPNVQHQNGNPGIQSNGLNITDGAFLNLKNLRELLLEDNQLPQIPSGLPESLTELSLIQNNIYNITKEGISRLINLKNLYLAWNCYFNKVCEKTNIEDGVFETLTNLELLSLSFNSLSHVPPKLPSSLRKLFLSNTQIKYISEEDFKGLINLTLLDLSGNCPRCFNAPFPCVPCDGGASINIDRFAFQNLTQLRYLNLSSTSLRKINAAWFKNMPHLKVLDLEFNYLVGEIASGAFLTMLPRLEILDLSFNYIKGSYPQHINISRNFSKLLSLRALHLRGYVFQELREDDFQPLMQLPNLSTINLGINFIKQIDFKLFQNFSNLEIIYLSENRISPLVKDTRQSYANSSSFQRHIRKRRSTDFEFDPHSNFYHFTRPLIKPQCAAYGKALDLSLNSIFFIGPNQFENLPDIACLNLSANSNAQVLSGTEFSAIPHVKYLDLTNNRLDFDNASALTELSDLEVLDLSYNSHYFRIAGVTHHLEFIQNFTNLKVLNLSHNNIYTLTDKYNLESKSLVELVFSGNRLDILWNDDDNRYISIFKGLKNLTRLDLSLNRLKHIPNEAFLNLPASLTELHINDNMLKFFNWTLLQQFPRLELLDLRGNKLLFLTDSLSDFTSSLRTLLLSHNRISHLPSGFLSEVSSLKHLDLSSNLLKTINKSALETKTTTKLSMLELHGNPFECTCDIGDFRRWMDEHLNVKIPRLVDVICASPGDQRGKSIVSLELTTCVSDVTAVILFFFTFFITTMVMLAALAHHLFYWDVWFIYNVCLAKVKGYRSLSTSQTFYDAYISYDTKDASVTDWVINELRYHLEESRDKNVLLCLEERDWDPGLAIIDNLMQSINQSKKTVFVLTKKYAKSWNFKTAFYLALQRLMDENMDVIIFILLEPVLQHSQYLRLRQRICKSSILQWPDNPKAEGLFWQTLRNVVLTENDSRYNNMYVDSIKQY
Method in brief: as §1

human TLR7 = target: T3, human TLR7 (Homo sapiens, UniProt Q9NYK1); assay: TLR7 inhibition reporter assay (HEK-Blue cells, SEAP reporter, gardiquimod stimulation); conditions: HEK-Blue cells overexpressing human TLR7, SEAP reporter, gardiquimod 7.5 μM; read-out: TLR7 IC50
T3 construct: host or cells: HEK-Blue cells
T3 sequence (Q9NYK1 27-1049): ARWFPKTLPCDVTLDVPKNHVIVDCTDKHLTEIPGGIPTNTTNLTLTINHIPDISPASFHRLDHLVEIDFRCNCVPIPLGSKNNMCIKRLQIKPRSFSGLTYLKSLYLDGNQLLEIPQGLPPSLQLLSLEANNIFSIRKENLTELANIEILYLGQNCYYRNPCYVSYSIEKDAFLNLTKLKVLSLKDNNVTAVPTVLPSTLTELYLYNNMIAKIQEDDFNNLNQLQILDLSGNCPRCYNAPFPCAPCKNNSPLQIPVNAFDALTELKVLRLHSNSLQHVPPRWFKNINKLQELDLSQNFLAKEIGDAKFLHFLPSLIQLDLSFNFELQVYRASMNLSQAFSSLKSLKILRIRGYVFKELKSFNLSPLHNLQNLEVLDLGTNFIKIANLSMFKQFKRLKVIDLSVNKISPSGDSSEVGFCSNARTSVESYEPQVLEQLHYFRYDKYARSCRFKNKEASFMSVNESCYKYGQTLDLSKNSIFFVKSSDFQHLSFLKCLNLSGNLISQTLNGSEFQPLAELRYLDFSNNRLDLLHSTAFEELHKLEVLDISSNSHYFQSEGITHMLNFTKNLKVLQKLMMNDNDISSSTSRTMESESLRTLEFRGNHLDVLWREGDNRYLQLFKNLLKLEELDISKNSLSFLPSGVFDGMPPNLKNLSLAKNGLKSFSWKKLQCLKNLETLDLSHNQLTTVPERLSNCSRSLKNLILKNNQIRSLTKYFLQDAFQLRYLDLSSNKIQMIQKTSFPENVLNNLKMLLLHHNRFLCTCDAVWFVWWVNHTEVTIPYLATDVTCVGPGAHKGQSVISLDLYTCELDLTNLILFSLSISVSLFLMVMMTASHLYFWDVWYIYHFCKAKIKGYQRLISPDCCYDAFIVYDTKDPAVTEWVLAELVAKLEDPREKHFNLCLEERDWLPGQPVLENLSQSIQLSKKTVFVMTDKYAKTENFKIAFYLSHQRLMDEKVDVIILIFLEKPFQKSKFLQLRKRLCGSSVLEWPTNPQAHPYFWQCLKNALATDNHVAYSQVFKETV
Method in brief: as §1

Compound | pIC50 (human TLR9) | pIC50 (human TLR8) | pIC50 (human TLR7)
COc1cc(-c2[nH]c3sc(C4CCC(NC5(C)CCC5)CC4)nc3c2C(C)C)cn2ncnc12 (single isomer, unassigned) [Example 109, 4-(6-isopropyl-5-(8-methoxy-[1,2,4]triazolo[1,5-a]pyridin-6-yl)-4H-pyrrolo[3,2-d]thiazol-2-yl)-N-(1-methylcyclobutyl) cyclohexan-1-amine] | 5.22 | 7.55 | 8.17
COc1cc(-c2[nH]c3sc(C4CCC(N5CC6(CCOCC6)C5)CC4)nc3c2C(C)C)cn2ncnc12 (single isomer, unassigned) [Example 110, 2-(4-(6-isopropyl-5-(8-methoxy-[1,2,4]triazolo[1,5-a]pyridin-6-yl)-4H-pyrrolo[3,2-d]thiazol-2-yl)cyclohexyl)-7-oxa-2-azaspiro[3.5]nonane] | 5.24 | 9.03 | 8.66
COc1cc(-c2[nH]c3sc(C4CCC(N5CC6(CCOCC6)C5)CC4)nc3c2C(C)C)cn2ncnc12 (single isomer, unassigned) [Example 111, 2-(4-(6-isopropyl-5-(8-methoxy-[1,2,4]triazolo[1,5-a]pyridin-6-yl)-4H-pyrrolo[3,2-d]thiazol-2-yl)cyclohexyl)-7-oxa-2-azaspiro[3.5]nonane] | 5.41 | 7.47 | 8.53
COc1cc(-c2[nH]c3sc(C4CCC(N5CCC6(CC5)COC6)CC4)nc3c2C(C)C)cn2ncnc12 (single isomer, unassigned) [Example 112, 7-(4-(6-isopropyl-5-(8-methoxy-[1,2,4]triazolo[1,5-a]pyridin-6-yl)-4H-pyrrolo[3,2-d]thiazol-2-yl)cyclohexyl)-2-oxa-7-azaspiro[3.5]nonane] | < 4.30 | 7.55 | 7.94
COc1cc(-c2[nH]c3sc(C4CCC(N5CCC6(CC5)COC6)CC4)nc3c2C(C)C)cn2ncnc12 (single isomer, unassigned) [Example 113, 7-(4-(6-isopropyl-5-(8-methoxy-[1,2,4]triazolo[1,5-a]pyridin-6-yl)-4H-pyrrolo[3,2-d]thiazol-2-yl)cyclohexyl)-2-oxa-7-azaspiro[3.5]nonane] | 5.11 | 7.57 | 8.96
COc1cc(-c2[nH]c3sc(C4CCC(N5CCC6(CCNC6)C5)CC4)nc3c2C(C)C)cn2ncnc12 (single isomer, unassigned) [Example 114, 2-(4-(2,7-diazaspiro[4.4]nonan-2-yl)cyclohexyl)-6-isopropyl-5-(8-methoxy-[1,2,4]triazolo[1,5-a]pyridin-6-yl)-4H-pyrrolo[3,2-d]thiazole] | 5.84 | 8.85 | 8.44
COc1cc(-c2[nH]c3sc(C4CCC(N5CCC6(CCNC6)C5)CC4)nc3c2C(C)C)cn2ncnc12 (single isomer, unassigned) [Example 115, 2-(4-(2,7-diazaspiro[4.4]nonan-2-yl)cyclohexyl)-6-isopropyl-5-(8-methoxy-[1,2,4]triazolo[1,5-a]pyridin-6-yl)-4H-pyrrolo[3,2-d]thiazole] | 5.92 | 7.77 | 7.93
COc1cc(-c2[nH]c3sc(C4CCC(NC5CC6(CNC6)C5)CC4)nc3c2C(C)C)cn2ncnc12 (single isomer, unassigned) [Example 116, N-(4-(6-isopropyl-5-(8-methoxy-[1,2,4]triazolo[1,5-a]pyridin-6-yl)-4H-pyrrolo[3,2-d]thiazol-2-yl)cyclohexyl)-2-azaspiro[3.3]heptan-6-amine] | 5.41 | 8.72 | 8.51
COc1cc(-c2[nH]c3sc(C4CCC(NC5CC6(CNC6)C5)CC4)nc3c2C(C)C)cn2ncnc12 (single isomer, unassigned) [Example 117, N-(4-(6-isopropyl-5-(8-methoxy-[1,2,4]triazolo[1,5-a]pyridin-6-yl)-4H-pyrrolo[3,2-d]thiazol-2-yl)cyclohexyl)-2-azaspiro[3.3]heptan-6-amine] | 5.12 | 7.64 | 8.24
COc1cc(-c2[nH]c3sc(C4CCC(N5CC(O)(C(F)(F)F)C5)CC4)nc3c2C(C)C)cn2ncnc12 (single isomer, unassigned) [Example 118, 1-(4-(6-isopropyl-5-(8-methoxy-[1,2,4]triazolo[1,5-a]pyridin-6-yl)-4H-pyrrolo[3,2-d]thiazol-2-yl)cyclohexyl)-3-(trifluoromethyl)azetidin-3-ol] | 5.48 | 8.90 | 8.70
COc1cc(-c2[nH]c3sc(C4CCC(N5CC(O)(C(F)(F)F)C5)CC4)nc3c2C(C)C)cn2ncnc12 (single isomer, unassigned) [Example 119, 1-(4-(6-isopropyl-5-(8-methoxy-[1,2,4]triazolo[1,5-a]pyridin-6-yl)-4H-pyrrolo[3,2-d]thiazol-2-yl)cyclohexyl)-3-(trifluoromethyl)azetidin-3-ol] | < 4.30 | 7.27 | 8.48
